No end group written: not given here.
Tested on: binding of human IgA to the purified Cβ protein
Experiment: ELISA inhibition assay: peptides blocking binding of human IgA to purified Cβ protein
Conditions: synthetic peptide added with half-maximal dilution of IgA myeloma protein
Procedure: Several synthetic peptides were made corresponding to the amino acid sequence contained within this region of the Cβ protein. Peptides were synthesized using NMP t-butoxycarbonyl chemistry on an ABI 430A peptide synthesizer (Applied Biosystems, Foster City, Calif.) and were deprotected. Peptides from a sample of the resin were removed from the resin by treatment with HF in the presence of anisole (0° C./1 h). Preparative purification of these peptides were performed using a C18 column (2.14 ID×30 cm) (Dynamax-Rainin, Woburn, Mass.). The peptides were quantitated by PTC amino acid analysis using Waters Picotag system (Waters, Milford, Mass.). The synthesized peptides eluted from the C18 column as a major peak consisting of usually 75-85% of the total elution profile. The amino acid composition of the purified peptides were in good agreement with the sequence which was used to synthesize the peptides. […] The plates were incubated at 37° C. for 1 h and the absorbance at 405 nm determined using an Elida-5 microtiter plate reader (Physica, New York, N.Y.). […] This was done to obtain a titer of the human IgA myeloma protein which would give a half-maximal reading in the ELISA assay. […] The dilution of the human IgA myeloma protein which gave the half maximal reading was then added. […] The plates were then processed and read as described. The percentage of inhibition would be calculated as follows: […]

In the case of NHQKSQVEKMAEQKG [SEQ ID NO: 10], the “inhibition of human IgA binding to purified Cβ” value was “inhibited”.

Reference: patent US20020058042A1, “Non-IgA fc binding forms of the Group B streptococcal beta antigens” (priority 1996, published 2002)
